Data taken from ChEMBL document CHEMBL2010716, “Structure based design of an in vivo active hydroxamic acid inhibitor of P. aeruginosa LpxC” (Bioorg Med Chem Lett, 2012).
Converted amounts (≈) assume the structure as drawn. The source made the active and inactive calls. The calls are words filed in the database; no cut-off is given here.

Experiments:
Pseudomonas aeruginosa [1] = assay: Antibacterial activity against wild type Pseudomonas aeruginosa; type: functional
[2] = biological target: T1, UDP-3-O-acyl-N-acetylglucosamine deacetylase (Pseudomonas aeruginosa (strain ATCC 15692 / PAO1 / 1C / PRS 101 / LMG12228), UniProt P47205); assay: Inhibition of Pseudomonas aeruginosa LpxC
T1 sequence (P47205 whole entry): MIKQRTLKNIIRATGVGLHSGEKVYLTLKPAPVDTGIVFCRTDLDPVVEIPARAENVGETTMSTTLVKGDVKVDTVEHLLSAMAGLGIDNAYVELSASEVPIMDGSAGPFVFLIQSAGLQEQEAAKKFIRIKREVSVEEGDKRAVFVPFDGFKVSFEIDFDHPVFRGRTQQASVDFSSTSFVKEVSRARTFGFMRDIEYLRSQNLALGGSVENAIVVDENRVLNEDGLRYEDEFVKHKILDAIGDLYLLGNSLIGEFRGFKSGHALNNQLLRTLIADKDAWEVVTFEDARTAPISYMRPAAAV

[3] = Half life in human hepatocytes; type: ADME, cell-based, Liver, Hepatocyte
[4] = Kinetic solubility of the compound; type: physicochemical; conditions: read-out: Kinetic_solubility
Pseudomonas aeruginosa [5] = assay: Antibacterial activity against efflux pump knock-down Pseudomonas aeruginosa PAO280 by twofold broth microdilution technique; type: functional
Pseudomonas aeruginosa [6] = assay: Antibacterial activity against wild type Pseudomonas aeruginosa UI-18 by NCCLS method; type: functional
[7] = Kinetic solubility of the compound at pH 6.5; type: physicochemical; conditions: buffer, read-out: Kinetic_solubility
Pseudomonas aeruginosa [8] = assay: Antibacterial activity against wild type Pseudomonas aeruginosa UI-18 infected in iv dosed mouse; type: functional; conditions: UI-18, iv, read-out: PD50
Pseudomonas aeruginosa [9] = assay: Antibacterial activity against wild type Pseudomonas aeruginosa UI-18 infected in sc dosed mouse; type: functional, organism-based
[10] = biological target: T2, UDP-3-O-acyl-N-acetylglucosamine deacetylase (Escherichia coli K-12, UniProt P0A725); assay: Inhibition of Escherichia coli LpxC
T2 sequence (P0A725 whole entry): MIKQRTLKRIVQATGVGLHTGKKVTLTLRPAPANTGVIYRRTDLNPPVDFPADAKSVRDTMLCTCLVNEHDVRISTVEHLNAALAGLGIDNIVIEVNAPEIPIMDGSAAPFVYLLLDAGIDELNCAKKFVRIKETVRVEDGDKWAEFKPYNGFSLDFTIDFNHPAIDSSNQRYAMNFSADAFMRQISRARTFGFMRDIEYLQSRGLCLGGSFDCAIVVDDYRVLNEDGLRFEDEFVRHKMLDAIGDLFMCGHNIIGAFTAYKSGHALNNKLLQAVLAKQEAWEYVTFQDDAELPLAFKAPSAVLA

Pseudomonas aeruginosa [11] = assay: Antibacterial activity against Pseudomonas aeruginosa C53; type: functional
[12] = Half life in rat hepatocytes; type: ADME, cell-based, Liver, Hepatocyte

SMILES	IC50 [2] [µM]	MIC (Pseudomonas aeruginosa [5]) [mg/L]	MIC (Pseudomonas aeruginosa [6]) [mg/L]	further results
CC(C)(OCc1ccc(-c2ccccc2)cc1)C(=O)NO	0.311			MIC (Pseudomonas aeruginosa [1]): > 64 mg/L
CC(CO)(COc1ccc(-c2ccccc2)cc1)C(=O)NO (configuration not stated)	0.39			half-life [3]: 1.43 h; solubility kinetic [4]: 26 µM (≈ 7.83 µg/mL)
CC(C)C[C@H](O)[C@](C)(OCc1ccc(-c2ccccc2)cc1)C(=O)NO		64 (≈ 179 µM)	> 64	
C[C@@](OCc1ccc(-c2ccccc2)cc1)(C(=O)NO)[C@@H](O)c1cc(CO)on1	0.0006	0.015 (≈ 0.0376 µM)	1 (≈ 2.51 µM)	half-life [3]: 2.33 h; solubility kinetic [7]: 130 µM (≈ 51.8 µg/mL); ED50 (Pseudomonas aeruginosa [8]): 37 mg/kg; Activity (Pseudomonas aeruginosa [9]): inactive
O=C(NO)[C@@H](Cc1ccc2ccccc2c1)NS(=O)(=O)c1ccc2ccccc2c1				Ki [10]: 0.02 µM; MIC (Pseudomonas aeruginosa [11]): 4 mg/L (≈ 9.51 µM)
Cc1cc([C@H](O)[C@](C)(OCc2ccc(-c3ccccc3)cc2)C(=O)NO)no1		0.015 (≈ 0.0392 µM)	1.75 (≈ 4.58 µM)	half-life [3]: 0.333 h; solubility kinetic [7]: 59 µM (≈ 22.6 µg/mL)
CCCC[C@H](O)[C@](C)(OCc1ccc(-c2ccccc2)cc1)C(=O)NO	0.09			
CC(CO)(NC(=O)c1ccc(-c2ccccc2)cc1)C(=O)NO (racemic)	0.286	32 (≈ 102 µM)	> 64	MIC (Pseudomonas aeruginosa [1]): > 64 mg/L; half-life [3]: 3.83 h; half-life [12]: 3.67 h; solubility kinetic [4]: 200 µM (≈ 62.9 µg/mL)
CC(C)[C@H](O)[C@](C)(OCc1ccc(-c2ccccc2)cc1)C(=O)NO		32 (≈ 93.2 µM)	> 64	
C[C@@](OCc1ccc(-c2ccccc2)cc1)(C(=O)NO)[C@@H](O)c1ccccc1	0.051	8 (≈ 21.2 µM)	> 64	
C[C@@H](N)[C@@H](NC(=O)N1CCN(c2ccc(C#Cc3ccccc3)cc2)CC1)C(=O)NO				MIC (Pseudomonas aeruginosa [1]): 12.5 mg/L (≈ 29.7 µM)
C[C@H](O)[C@](C)(OCc1ccc(-c2ccccc2)cc1)C(=O)NO		0.5 (≈ 1.59 µM)	32 (≈ 101 µM)	
C[C@@H](O)[C@](C)(OCc1ccc(-c2ccccc2)cc1)C(=O)NO	0.004	0.75 (≈ 2.38 µM)	64 (≈ 203 µM)	

More lines, main results first:

IC50 [2] [µM]	MIC (Pseudomonas aeruginosa [5]) [mg/L]	MIC (Pseudomonas aeruginosa [6]) [mg/L]	SMILES	further results
0.0004	0.06 (≈ 0.163 µM)	6 (≈ 16.3 µM)	C[C@@](OCc1ccc(-c2ccccc2)cc1)(C(=O)NO)[C@@H](O)c1ccon1	
0.0008	0.125 (≈ 0.34 µM)	8 (≈ 21.8 µM)	C[C@@](OCc1ccc(-c2ccccc2)cc1)(C(=O)NO)[C@@H](O)c1c[nH]cn1	
0.022	4 (≈ 13.3 µM)	> 64	CC(CO)(OCc1ccc(-c2ccccc2)cc1)C(=O)NO (racemic)	MIC (Pseudomonas aeruginosa [1]): > 64 mg/L; half-life [3]: 6 h; solubility kinetic [4]: 200 µM (≈ 60.3 µg/mL)
0.008	3 (≈ 9.11 µM)	> 64	CC[C@H](O)[C@@](C)(OCc1ccc(-c2ccccc2)cc1)C(=O)NO	
0.0033	0.5 (≈ 1.67 µM)	16 (≈ 53.4 µM)	CC(CO)(CCc1ccc(-c2ccccc2)cc1)C(=O)NO (configuration not stated)	half-life [3]: 1.2 h; solubility kinetic [4]: 89 µM (≈ 26.6 µg/mL)
0.015	0.25 (≈ 0.661 µM)	32 (≈ 84.6 µM)	C[C@](OCc1ccc(-c2ccccc2)cc1)(C(=O)NO)[C@@H](O)c1ccccn1	
0.026	2 (≈ 5.23 µM)	> 64	Cn1nncc1[C@H](O)[C@](C)(OCc1ccc(-c2ccccc2)cc1)C(=O)NO	
0.025	0.19 (≈ 0.498 µM)	33 (≈ 86.5 µM)	Cn1ccnc1[C@H](O)[C@](C)(OCc1ccc(-c2ccccc2)cc1)C(=O)NO	
0.018	0.5 (≈ 1.32 µM)	32 (≈ 84.6 µM)	C[C@@](OCc1ccc(-c2ccccc2)cc1)(C(=O)NO)[C@@H](O)c1cccnc1	
0.0008	0.125 (≈ 0.339 µM)	8 (≈ 21.7 µM)	C[C@@](OCc1ccc(-c2ccccc2)cc1)(C(=O)NO)[C@@H](O)c1ccno1	
0.028	> 64	> 64	CCOCC[C@H](O)[C@](C)(OCc1ccc(-c2ccccc2)cc1)C(=O)NO	
0.008			CCc1ccc(-c2ccc(C(=O)N[C@H](C(=O)NO)[C@@H](C)O)cc2)cc1	MIC (Pseudomonas aeruginosa [1]): 4 mg/L (≈ 11.7 µM); half-life [3]: 3.83 h; half-life [12]: 0.75 h
0.003	0.25 (≈ 0.679 µM)	8 (≈ 21.7 µM)	C[C@@](OCc1ccc(-c2ccccc2)cc1)(C(=O)NO)[C@@H](O)c1ncco1	
0.0004	0.25 (≈ 0.68 µM)	4 (≈ 10.9 µM)	C[C@@](OCc1ccc(-c2ccccc2)cc1)(C(=O)NO)[C@@H](O)c1ccn[nH]1	
